The test system of data set [1] is HeLa (cervical carcinoma). As to conditions: for IC50: read-out: Cytotoxicity IC50, HeLa, 72 h of compound treatment, Cell Titer-Glo (ATP levels), error is standard deviation of the mean, n ≥ 2. The protocol: (§1) Cells were grown in media supplemented with fetal bovine serum (FBS) and antibiotics (100 μg/mL penicillin and 100 U/mL streptomycin).
(§2) Cells were plated at 250 cells/well into duplicate assay plates in 50 μL media into 384-well white, opaque, tissue-culture treated plates and allowed to adhere overnight at 37° C./5% CO2. Compounds were solubilized in DMSO as 1000× stocks and […] was pin-transferred to cells (V&P pin tool mounted on Tecan Freedom Evo MCA96). Compounds were tested in 10-pt, 2-fold dilution with concentrations tested between 1 nM-20 μM for most compounds, except where indicated. DMSO (32 wells of 384-wells) was used as vehicle control. After 72 hours of incubation at 37° C./5% CO2, 10 μL Cell Titer-Glo (Promega) was added to each well and plates were incubated at room temperature for 10 minutes before the luminescence was read on a Tecan M1000 plate reader. Cell Titer-Glo measures ATP levels of cells as a surrogate for cell viability. All compound-treated wells was normalized to the DMSO control averages and expressed as a % of DMSO viability. IC50 values were determined from the dose curves using Spotfire (Perkin Elmer).
(In general: Cellular ATP, detected with luciferase, serves as a proxy for viable cell number.)

For data set [2], the system named is DU-145 (prostate carcinoma). Conditions: for IC50: read-out: Cytotoxicity IC50, DU-145, 72 h of compound treatment, Cell Titer-Glo (ATP levels), error is standard deviation of the mean, n ≥ 2. As for the experimental part:
as §1, §2

Data set [3] deals with A549 (alveolar adenocarcinoma). As to conditions: for IC50: read-out: Cytotoxicity IC50, A549, 72 h of compound treatment, Cell Titer-Glo (ATP levels), error is standard deviation of the mean, n ≥ 2. As for the experimental part:
as §1, §2

Data set [4] deals with Toledo cell lines (diffuse large cell lymphoma; non-Hodgkin's B cell lymphoma). Put plainly: cells. It is filed as cell-based. Conditions: Homo sapiens, 72 hours, CellTiter-Glo. The protocol:
(§3) Cells were grown in RPMI-1640+10% FBS+Pen/Strep and all are suspension cell lines. Each were plated at 250 cells per well in 50 μL of media in a 384 well plate and 50 nL of compounds was added via pin-tool (same as our usual procedure). Compounds were tested at 20 μM starting assay concentration in 20-pt, 2-fold dose in duplicate on the same assay plate. Cells were incubated with compound for 72 hours and viability was read out with CellTiter-Glo.

For data set [5], the system named is K-562 cell lines (chronic myelogenous leukemia (CML)). Briefly: cells. It is filed as cell-based. Conditions: Homo sapiens, K562; 72 hours, CellTiter-Glo. The protocol:
as §3

Data set [6] concerns Jurkat cell lines (acute T cell leukemia). Put plainly: cells. It is filed as cell-based. Conditions: Homo sapiens, 72 hours, CellTiter-Glo. As for the experimental part: as §3
Data set [7] is described as follows: Chemical stability of epidisulfides, in situ 1H NMR monitoring. It is filed as physicochemical. Conditions: triethylamine, 16 hours in deuteroacetonitrile. As for the experimental part: In the absence of base, 98% of epidisulfide (+)-8 remained after 20 hours in deuterochloroform.
Monitoring in situ by ^1H NMR spectroscopy, 99% remaining starting material in the presence of triethylamine after 16 hours in deuteroacetonitrile was observed.

Data set [8] deals with HCT116 (colorectal carcinoma). Conditions: read-out: Cytotoxicity IC50, HCT116; 72 h of compound treatment, Cell Titer-Glo (ATP levels); error is standard deviation of the mean, n ≥ 2. The protocol: as §1, §2
The test system of data set [9] is MCF7 (breast adenocarcinoma). As to conditions: read-out: Cytotoxicity IC50, MCF7; 72 h of compound treatment, Cell Titer-Glo (ATP levels); error is standard deviation of the mean, n ≥ 2. As for the experimental part: as §1, §2
Data set [10] deals with five human cancer cell lines (HeLa, A549, MCF7, HCT116, DU-145). As to conditions: for cytotoxic activity relative to parent ETP (in words): same five cell lines. As for the experimental part: Cells were grown in media supplemented with fetal bovine serum (FBS) and antibiotics (100 μg/mL penicillin and 100 U/mL streptomycin). Specifically, experiments were performed using the following cell lines and media compositions: HeLa (cervical adenocarcimona) and A549 (lung carcinoma) were grown in RPMI-1640+10% FBS; HCT-116 (colorectal carcinoma) was grown in DMEM+10% FBS; DU-145 (prostate carcinoma) and MCF7 (breast adenocarcinoma) were grown in EMEM+10% FBS. Cells were incubated at 37° C. in a 5% CO2, 95% humidity atmosphere.
as §2
To evaluate the model and functionalized ETP probes as anticancer agents, fifteen derivatives were tested in culture against a panel of five human cancer cell lines (Table 1).

For data set [11] the following is noted: D2O and CD3CN, addition of glutathione; minutes with base or days without. The protocol: The first study involved thiol-disulfide exchange of ETPs in organic solvents using a surrogate thiol, and then transitioned to more biologically informative aqueous conditions involving glutathione (Scheme 9).
To investigate this, aliquots of the reaction were diluted starting with epidisulfide (+)-42 (“from ETP”) in CDCl3 to analyze the composition versus an internal standard over a period of 100 h.

This note sets out measurements from patent US12180228B2 (priority 2019, dated 2024).

For the compound `CN1C(=O)[C@@]23C[C@]4(c5ccc(OCCCN=[N+]=[N-])cc5)c5ccccc5N(S(=O)(=O)c5ccccc5)[C@@H]4N2C(=O)[C@]1(C)SS3` [(+)-9d, Epidithiodiketopiperazine Azide], in [1], the “fold decrease in activity compared to model ETP (+)-42, HeLa” value came to 4.3 fold. The “fold decrease in activity compared to model ETP (+)-42, DU-145” value in [2] stood at 8.6 fold. For the same compound, the “fold decrease in activity compared to model ETP (+)-42, A549” value in data set [3] is on record as 2.7 fold. The half-inhibitory concentration (IC50) turned out to be 1810 nM in data set [4], 1280 nM in [5] and 419 nM in [6].

Compound `COc1ccc([C@]23C[C@@]45SS[C@@](C)(C(=O)N4[C@H]2N(S(=O)(=O)c2ccccc2)c2ccccc23)N(C)C5=O)cc1` [(+)-42, Epidithiodiketopiperazine] came in with a remaining starting material in data set [7] of 99%. In addition, the IC50 in data set [1] was 32 ± 37 nM; in data set [2], 36 ± 43 nM; in data set [8], 374 ± 83 nM; in data set [3], 92 ± 87 nM; in data set [9], 81 ± 64 nM; in data set [10] (read-out: activity (IC50 range) against the five cell lines, range over HeLa, A549, MCF7, HCT116, DU-145) it was 32 to 374 nM.

On to `COc1ccc([C@]23C[C@]4(SSCc5ccc(F)cc5)C(=O)N(C)[C@@](C)(SSCc5ccc(F)cc5)C(=O)N4[C@H]2N(S(=O)(=O)c2ccccc2)c2ccccc23)cc1` [(+)-45b], for which the “cytotoxic activity relative to parent ETP (in words)” value in [10] is on record as “approximately the same activities”.

Take `COc1ccc([C@]23C[C@]4(SSCc5ccc(F)cc5)C(=O)N(C)[C@@H](SSCc5ccc(F)cc5)C(=O)N4[C@H]2N(S(=O)(=O)c2ccccc2)c2ccccc23)cc1` [(−)-45a]: in [10], the “cytotoxic activity relative to parent ETP (in words)” value is on record as “approximately the same activities”.

In the case of `COc1ccc([C@]23C[C@]4(SSC[C@H](NC(=O)CC[C@H](N)C(=O)O)C(=O)NCC(=O)O)C(=O)N(C)[C@@](C)(SSC[C@H](NC(=O)CC[C@H](N)C(=O)O)C(=O)NCC(=O)O)C(=O)N4[C@H]2N(S(=O)(=O)c2ccccc2)c2ccccc23)cc1` [Compound 46, Bis(L-glutathione)disulfide], the concentration for half-maximal inhibition (IC50) in data set [1] was found to be 508 ± 75 nM; in [2], 580 ± 216 nM; in data set [8] it was 1100 ± 540 nM; in data set [3] it was 910 ± 324 nM; in data set [9] it was 500 ± 152 nM. Besides, the “cytotoxic activity relative to parent ETP (in words)” value in [10] is “significantly less active”. Moreover, in data set [11], the “reversion of bisdisulfide to ETP (+)-42 (in words)” value was “quantitative reversion”.

What is called IC50 is the concentration that gives 50% inhibition.
